Values after ≈ are worked out from the molar mass of the structure shown. Like-named read-outs stand apart in the source and are kept apart here.
Tests used:
[1] = tested on: Bacillus subtilis ATCC 6633; assay: MIC by standard agar plate dilution method; type: cell-based; details: ATCC6633, Table 1, Mueller-Hinton agar
Method: (§1) The minimum inhibitory concentration (MIC, μg/ml) of a test compound was determined by means of a standard agar plate dilution method (based on the standard method of Japan Society of Chemotherapy). Media used in these experiments were Mueller-Hinton agar (MHA; Nissui).

[2] = tested on: Enterobacter cloacae TU-680; assay: MIC by standard agar plate dilution method; type: cell-based; details: TU680, Table 1, Mueller-Hinton agar
Method: as §1

[3] = tested on: Klebsiella pneumoniae 5038; assay: MIC by standard agar plate dilution method; type: cell-based; details: Table 1, Mueller-Hinton agar
Method: as §1

[4] = tested on: Pseudomonas aeruginosa 4096; assay: MIC by standard agar plate dilution method; type: cell-based; details: Table 1, Mueller-Hinton agar
Method: as §1

[5] = tested on: Pseudomonas putida ATCC 12633; assay: MIC by standard agar plate dilution method; type: cell-based; details: ATCC12633, Table 1, Mueller-Hinton agar
Method: as §1

[6] = tested on: Staphylococcus aureus 252R; assay: MIC by standard agar plate dilution method; type: cell-based
Method: as §1

[7] = tested on: Staphylococcus aureus Terajima; assay: MIC by standard agar plate dilution method; type: cell-based; details: Table 1, Mueller-Hinton agar
Method: as §1

[8] = tested on: Streptococcus faecalis CN-478; assay: MIC by standard agar plate dilution method; type: cell-based; details: Enterococcus faecalis
Excerpt: The cephalosporin compound (I) of the present invention and pharmaceutically acceptable salts thereof show potent antimicrobial activity against a wide variety of microorganisms including those belonging to the genera Streptococcus (e.g., St. faecalis, St. pneumoniae), Staphylococcus (e.g., S. aureus, S. epidermidis) and Pseudomonas (e.g., Ps. aeruginosa, Ps. putida, Ps. stutzeri), and are particularly characterized by their potent antimicrobial activity against both gram-positive and gram-negative bacteria. […] The antimicrobial activity of 7β{(Z)-2-(2-aminothiazol-4-yl)-2-[(2-pyrrolidon-3-yl)oxyimino]-acetamido}-3-[(1-methyl-1H-tetrazol-5-yl)thio-methyl]-3-cephem-4-carboxylic acid against Staphylococcus aureus 252R is also more than 16 times stronger than those of Cefmenoxime and Ceftazidime. Moreover, the compound (I) and a salt thereof show potent antimicrobial activity against bacteria belonging to the genera Bacillus (e.g., B. subtilis), Escherichia (e.g., E. coli), Klebsiella (e.g., K. pneumoniae), Enterobacter (e.g., E. aerogenes, E. cloacae) and Serratia (e.g., S. marcescens).
as §1

Citrobacter freundii 916 [9] = assay: MIC by standard agar plate dilution method; type: cell-based
Method: as §1
(§2) The results are shown in the following Table 2 together with the M. I. C. (μg/ml) of the test compound which was estimated in the same manner as described in Experiment I.

[10] = tested on: Enterobacter aerogenes 816; assay: MIC by standard agar plate dilution method; type: cell-based
Method: as §1, §2

Escherichia coli KC-14 [11] = assay: MIC by standard agar plate dilution method; type: cell-based; details: KC14, Table 2, read-out: M.I.C. (in parentheses)
Method: as §1, §2

Serratia marcescens 7006 [12] = assay: MIC by standard agar plate dilution method; type: cell-based
Method: as §1, §2

[13] = tested on: Staphylococcus aureus Smith; assay: MIC by standard agar plate dilution method; type: cell-based; details: read-out: M.I.C. (in parentheses)
Method: as §1, §2

Citrobacter freundii 916 [14] = assay: Protective effects on bacterial infections in mice; type: in vivo; details: 168 h
Method: (§3) Ten male mice weighing 20±1 g were used for each dose level. Mice were challenged via the intraperitoneal route with sufficient bacteria to kill all non-treated mice within 24 hours. All bacteria were suspended in 6 % mucin. A test compound were administered intramuscularly one hour after the infection. Survival ratios were determined 7 days after the infection. The median effective doses (ED50, mg/kg) of the test compound were estimated by the probito analysis.

[15] = tested on: Enterobacter aerogenes 816; assay: Protective effects on bacterial infections in mice; type: in vivo; details: 168 h
Method: as §3

Escherichia coli KC-14 [16] = assay: Protective effects on bacterial infections in mice; type: in vivo; details: KC14, im, 168 h, intramuscular one hour after intraperitoneal infection, survival at 7 days
Method: as §3

Serratia marcescens 7006 [17] = assay: Protective effects on bacterial infections in mice; type: in vivo; details: 168 h
Method: as §3

[18] = tested on: Staphylococcus aureus Smith; assay: Protective effects on bacterial infections in mice; type: in vivo; details: im, 168 h
Method: as §3

[19] = Subcutaneous administration to SD-male rats for 14 consecutive days; type: in vivo; details: dose of 1000 mg for 14 consecutive days
Method: For example, no rats die even after 7β-{(Z)-2-(2-aminothiazol-4-yl)-2-[(2-pyrrolidon-3-yl)oxyimino]acetamido}-3-(1-pyridiniomethyl)-3-cephem-4-carboxylate (l-isomer) is administered subcutaneously to SD-male rats at a dose of 1000 mg for 14 consecutive days.

[20] = Table 1, Mueller-Hinton agar, Staphylococcus aureus 252R, read-out: M.I.C.
[21] = CN478, Table 1, Mueller-Hinton agar, Streptococcus faecalis CN-478, read-out: M.I.C.
[22] = CN478, agar dilution method, cultured for 20 hours at 37° C., Streptococcus faecalis CN 478, read-out: minimum inhibitory concentration (M.I.C.)
[23] = Table 2, Citrobacter freundii 916, read-out: M.I.C. (in parentheses)
[24] = Klebsiella aerogenes, Table 2, Enterobacter aerogenes 816, read-out: M.I.C. (in parentheses)
[25] = Table 1, Mueller-Hinton agar, Serratia marcescens 7006, read-out: M.I.C.
[26] = Table 2, Serratia marcescens 7006, read-out: M.I.C. (in parentheses)
[27] = Table 2, Staphylococcus aureus Smith
[28] = im, Citrobacter freundii 916, intramuscular one hour after intraperitoneal infection, survival at 7 days, read-out: ED50
[29] = Klebsiella aerogenes, im, Enterobacter aerogenes 816, intramuscular one hour after intraperitoneal infection, survival at 7 days, read-out: ED50
[30] = im, Serratia marcescens 7006, intramuscular one hour after intraperitoneal infection, survival at 7 days, read-out: ED50
[31] = Staphylococcus aureus Smith, intramuscular one hour after intraperitoneal infection, survival at 7 days, read-out: ED50

Question: Which results are given for `CO/N=C(\C(=O)N[C@@H]1C(=O)N2C(C(=O)O)=C(CSc3nnnn3C)CS[C@H]12)c1csc(N)n1` [Cefmenoxime, 7β-[(Z)-2-(2-aminothiazol-4-yl)-2-(methoxyimino)acetamido]-3-[(1-methyl-1H-tetrazol-5-yl)thiomethyl]-3-cephem-4-carboxylic acid]?
Answer: MIC [1]: 1.56 µg/mL (≈ 3.05 µM); MIC [2]: 0.1 µg/mL (≈ 0.195 µM); MIC [3]: 0.1 µg/mL (≈ 0.195 µM); MIC [4]: 6.25 µg/mL (≈ 12.2 µM); MIC [5]: 100 µg/mL (≈ 195 µM); MIC [6, 20]: > 100 µg/mL; MIC [7]: 1.56 µg/mL (≈ 3.05 µM); MIC [8, 21]: > 100 µg/mL; MIC [8, 22]: > 100 µg/mL; MIC (Citrobacter freundii 916 [9]; [23]): 0.05 µg/mL (≈ 0.0977 µM); MIC [10, 24]: 1.56 µg/mL (≈ 3.05 µM); MIC (Escherichia coli KC-14 [11]): 0.025 µg/mL (≈ 0.0489 µM); MIC (Serratia marcescens 7006 [12]; [25]): 0.2 µg/mL (≈ 0.391 µM); MIC (Serratia marcescens 7006 [12]; [26]): 0.2 µg/mL (≈ 0.391 µM); MIC [13, 27]: 1.56 µg/mL (≈ 3.05 µM); ED50 (Citrobacter freundii 916 [14]; [28]): 0.19 mg/kg; ED50 [15, 29]: 23.9 mg/kg; ED50 (Escherichia coli KC-14 [16]): 0.16 mg/kg; ED50 (Serratia marcescens 7006 [17]; [30]): 0.88 mg/kg; ED50 [18, 31]: 5.32 mg/kg

Question: For `Nc1nc(/C(=N/O[C@H]2CCNC2=O)C(=O)N[C@@H]2C(=O)N3C(C(=O)[O-])=C(C[n+]4ccccc4)CS[C@H]23)cs1` [Example 6, 7β-{(Z)-2-(2-aminothiazol-4-yl)-2-[(2-pyrrolidon-3-yl)oxyimino]acetamido}-3-(1-pyridiniomethyl)-3-cephem-4-carboxylate (l-isomer)], which MIC [1] is on record?
Answer: 0.2 µg/mL (≈ 0.368 µM)

Question: What about the MIC [2] of the same molecule?
Answer: ≤ 0.05 µg/mL

Question: And the MIC [3]?
Answer: 0.05 µg/mL (≈ 0.092 µM)

Question: What about the MIC [4] of the same molecule?
Answer: 0.39 µg/mL (≈ 0.717 µM)

Question: And the MIC [5]?
Answer: 1.56 µg/mL (≈ 2.87 µM)

Question: And the MIC [6, 20]?
Answer: 25 µg/mL (≈ 46 µM)

Question: And the MIC [7]?
Answer: 0.78 µg/mL (≈ 1.43 µM)

Question: What about the MIC [8, 21] of the same molecule?
Answer: 12.5 µg/mL (≈ 23 µM)

Question: What about the MIC [8, 22] of the same molecule?
Answer: 12.5 µg/mL (≈ 23 µM)

Question: What about the MIC (Citrobacter freundii 916 [9]; [23]) of the same molecule?
Answer: 0.1 µg/mL (≈ 0.184 µM)

Question: And the MIC [10, 24]?
Answer: 0.39 µg/mL (≈ 0.717 µM)

Question: And the MIC (Escherichia coli KC-14 [11])?
Answer: 0.05 µg/mL (≈ 0.092 µM)

Question: What about the MIC (Serratia marcescens 7006 [12]; [25]) of the same molecule?
Answer: ≤ 0.05 µg/mL

Question: And the MIC (Serratia marcescens 7006 [12]; [26])?
Answer: 0.05 µg/mL (≈ 0.092 µM)

Question: What about the MIC [13, 27] of the same molecule?
Answer: 1.56 µg/mL (≈ 2.87 µM)

Question: And the ED50 (Citrobacter freundii 916 [14]; [28])?
Answer: 0.06 mg/kg

Question: What about the ED50 [15, 29] of the same molecule?
Answer: 1.37 mg/kg

Question: What about the ED50 (Escherichia coli KC-14 [16]) of the same molecule?
Answer: 0.05 mg/kg

Question: And the ED50 (Serratia marcescens 7006 [17]; [30])?
Answer: 0.14 mg/kg

Question: What about the ED50 [18, 31] of the same molecule?
Answer: 1.71 mg/kg

Question: And the deaths of rats [19]?
Answer: no rats die

Question: With `CC(C)(O/N=C(\C(=O)N[C@@H]1C(=O)N2C(C(=O)[O-])=C(C[n+]3ccccc3)CS[C@H]12)c1csc(N)n1)C(=O)O` [Ceftazidime, 7β-[(Z)-2-(2-aminothiazol-4-yl)-2-(2-carboxyprop-2-yloxyimino)acetamido]-3-(1-pyridiniomethyl)-3-cephem-4-carboxylate] as the molecule, how does the MIC [1] read?
Answer: 3.13 µg/mL (≈ 5.73 µM)

Question: And the MIC [2]?
Answer: 0.2 µg/mL (≈ 0.366 µM)

Question: What about the MIC [3] of the same molecule?
Answer: 0.1 µg/mL (≈ 0.183 µM)

Question: And the MIC [4]?
Answer: 0.78 µg/mL (≈ 1.43 µM)

Question: And the MIC [5]?
Answer: 12.5 µg/mL (≈ 22.9 µM)

Question: What about the MIC ([6]; Staphylococcus aureus, 252R) of the same molecule?
Answer: > 100 µg/mL

Question: And the MIC [7]?
Answer: 12.5 µg/mL (≈ 22.9 µM)

Question: What about the MIC ([8]; CN478) of the same molecule?
Answer: > 100 µg/mL

Question: And the MIC ([8]; CN478, 20 h, read-out: minimum inhibitory concentration (M.I.C.))?
Answer: > 100 µg/mL

Question: And the MIC (Citrobacter freundii 916 [9]; Citrobacter freundii, 916, read-out: M.I.C. (in parentheses))?
Answer: 0.39 µg/mL (≈ 0.714 µM)

Question: And the MIC ([10]; Klebsiella aerogenes, 816, read-out: M.I.C. (in parentheses))?
Answer: 6.25 µg/mL (≈ 11.4 µM)

Question: And the MIC (Escherichia coli KC-14 [11])?
Answer: 0.05 µg/mL (≈ 0.0915 µM)

Question: And the MIC (Serratia marcescens 7006 [12]; Serratia marcescens, 7006)?
Answer: 0.2 µg/mL (≈ 0.366 µM)

Question: And the MIC (Serratia marcescens 7006 [12]; Serratia marcescens, 7006, read-out: M.I.C. (in parentheses))?
Answer: 0.2 µg/mL (≈ 0.366 µM)

Question: What about the MIC ([13]; Staphylococcus aureus) of the same molecule?
Answer: 12.5 µg/mL (≈ 22.9 µM)

Question: And the ED50 (Citrobacter freundii 916 [14]; Citrobacter freundii, 916, im)?
Answer: 0.15 mg/kg

Question: And the ED50 ([15]; Klebsiella aerogenes, 816, im)?
Answer: 26.4 mg/kg

Question: What about the ED50 (Escherichia coli KC-14 [16]) of the same molecule?
Answer: 0.08 mg/kg

Question: What about the ED50 (Serratia marcescens 7006 [17]; Serratia marcescens, 7006, im) of the same molecule?
Answer: 0.54 mg/kg

Question: And the ED50 ([18]; Staphylococcus aureus)?
Answer: 7.85 mg/kg

Question: Which MIC [8, 22] does the source give for `CN1CCC(O/N=C(\C(=O)N[C@@H]2C(=O)N3C(C(=O)O)=C(CSc4nnnn4C)CS[C@H]23)c2csc(N)n2)C1=O` (stereo partly drawn) [7β-{(Z)-2-(2-aminothiazol-4-yl)-2-[(1-methyl-2-pyrrolidon-3-yl)oxyiminoacetamido}-3-[(1-methyl-1H-tetrazol-5-yl)thiomethyl]-3-cephem-4-carboxylic acid] here?
Answer: 25 µg/mL (≈ 42 µM)

Question: For `Cn1nnnc1SCC1=C(C(=O)O)N2C(=O)[C@@H](NC(=O)/C(=N\OC3CCNC3=O)c3csc(N)n3)[C@H]2SC1` (stereo partly drawn) [7β{(Z)-2-(2-aminothiazol-4-yl)-2-[(2-pyrrolidon-3-yl)oxyimino]-acetamido}-3-[(1-methyl-1H-tetrazol-5-yl)thio-methyl]-3-cephem-4-carboxylic acid], which “antimicrobial activity stronger than those of Cefmenoxime and Ceftazidime” value ([6]; Staphylococcus aureus 252R, relative to Cefmenoxime and Ceftazidime) is on record?
Answer: more than 16 times

Source: patent US4598075A, “Cephalosporin compounds” (Tanabe Seiyaku Co., Ltd., priority 1982, dated 1986)
